According to US8603762B2 (priority 2008, dated 2013):
Like-named read-outs stand apart in the source and are kept apart here.

How the values were obtained:
Type in all cases: cell-based
[1] = tested on: HEK293T Gα16gustducin44 cells (that do not express TAS2R46)
Method: (§1) At day 0, the HEK293T cell line expressing Gα16-gustducin44 and a TAS2R46 bitter taste receptor formed as described in examples 2b or 2c was seeded in antibiotic-free growth medium (standard DMEM with 10% (v/v) heat-inactivated fetal bovine serum, 2 mM L-glutamine[…]) into black wall/clear bottom 96-well plates, coated with poly(ethylenimine) (0.005% v/v) at a concentration of 15,000 cells per well and incubated for 48 hours in humidified atmosphere (37° C., 5% CO2).
(§2) At the time of the assay, the growth medium was discarded and the cells were in humidified atmosphere (37° C., 5% CO2) for 1 hour with 50 μl of loading buffer consisting of 1.5 μM Fluo-4 AM and […] probenicid (Sigma-Aldrich, St. Louis, Mo., US) in DMEM.
(§3) Afterwards, the 96-well plate was washed 5 times with 100 μl of assay buffer (130 mM NaCl, 5 mM KCl, 10 mM HEPES, 2 mM CaCl2, and 5 mM dextrose, pH 7.4) per well, using an automated plate washer (BioTek). The plate was further incubated for 30 minutes at room temperature in the dark to allow for complete de-esterification of the Fluo-4. Afterwards the plate was washed 5 times with 100 μl of assay buffer per well, and reconstituted with 100 μl of assay buffer per well.
(§4) For assay reading, the plate was placed in a Fluorometric Imaging Plate Reader (FLIPR) (FLIPR-TETRA™, Molecular Devices, Sunnyvale, Calif., US), and receptor activation was initiated by addition of 20 μl of a tenfold concentrated agonist stock solution (to give the desired agonist end concentration when added to the 180 microliter assay buffer volume), which was prepared in assay buffer.
(§5) Fluorescence was continuously monitored for 20 seconds to give a signal baseline (averaged to give F0) prior to agonist addition and for 120 seconds after agonist addition. The change in signal divided by F0 gives ΔF/F0 indicated in the table, with ΔF being the maximum signal occurring within the 120 seconds minus the minimum signal (occurring within the 120 seconds after agonist addition.
(§6) The obtained calcium signals were corrected for the response of cells expressing only the G Protein α subunit (Gα16-gustducin44) and normalized to the fluorescence of cells prior to the stimulus using ΔF/F0 (Fmax−Fmin/F0).

human TAS2R46 [2] = target: T1, human TAS2R46 (Homo sapiens, UniProt P59540)
T1 construct: RSS tag (first 45 amino acids of rat somatostatin receptor subtype 3, plus EcoRI site residues) (N); expressed in transfected cells
T1 sequence (P59540 with tags, fused parts or gaps): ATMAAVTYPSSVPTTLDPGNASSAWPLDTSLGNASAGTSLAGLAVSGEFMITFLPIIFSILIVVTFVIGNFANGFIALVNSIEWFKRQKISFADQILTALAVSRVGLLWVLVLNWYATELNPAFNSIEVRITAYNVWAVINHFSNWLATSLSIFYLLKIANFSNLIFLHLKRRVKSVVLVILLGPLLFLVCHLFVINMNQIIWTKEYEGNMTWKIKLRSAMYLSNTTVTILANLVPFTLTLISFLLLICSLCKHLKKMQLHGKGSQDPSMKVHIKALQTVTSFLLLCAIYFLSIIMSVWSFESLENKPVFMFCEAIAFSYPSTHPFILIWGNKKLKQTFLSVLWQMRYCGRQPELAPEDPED
Method: as §1, §2, §3, §4, §5, §6

human TAS2R46 [3] = target: T1, human TAS2R46; assay: Fluo-4 calcium assay, HEK293T/Gα16-gustducin44 cells transiently expressing TAS2R46
Method: In a second tube, 0.3 μl of Lipofectamine 2000 was diluted in 12.5 μl of DMEM and incubated for 5 min at room temperature. After the 5 min, both solutions were mixed and incubated for 20 min at RT. […] This mixture was then replaced with an antibiotic-free, serum-containing DMEM. […]
as §4
Fluorescence was continuously monitored for 20 seconds to give a signal baseline (averaged to give F0) prior to agonist addition and for 120 seconds after agonist addition. […]
as §6

[4] = tested on: more than 15 human TAS2Rs; assay: Activation of other human TAS2Rs; conditions: more than 15 human TAS2Rs tested

In the case of `O=C1C[C@@H]2OCC=C3CN4CC[C@]56c7ccccc7N1[C@H]5[C@H]2[C@H]3C[C@H]46` [strychnine], the “Neg. Control ΔF/F0” value ([1]; strychnine 0.977 μM, cells without TAS2R46) is reported as 0.060, the “Neg. Control ΔF/F0” value ([1]; strychnine 1.953 μM, cells without TAS2R46) is reported as 0.065 and the “Neg. Control ΔF/F0” value ([1]; strychnine 3.906 μM, cells without TAS2R46) is reported as 0.071. For the same compound, the “Neg. Control ΔF/F0” value ([1]; strychnine 7.813 μM, cells without TAS2R46) was 0.070, the “Neg. Control ΔF/F0” value ([1]; strychnine 15.63 μM, cells without TAS2R46) was 0.063 and the “Neg. Control ΔF/F0” value ([1]; strychnine 31.25 μM, cells without TAS2R46) was 0.088. For the same compound, the “Neg. Control ΔF/F0” value ([1]; strychnine 62.50 μM, cells without TAS2R46) was 0.091, the “Neg. Control ΔF/F0” value ([1]; strychnine 125.0 μM, cells without TAS2R46) was 0.088 and the “Neg. Control ΔF/F0” value ([1]; strychnine 250.0 μM, cells without TAS2R46) was 0.181.
`COc1ccc2c(c1)[C@]13CCCC[C@@H]1[C@H](C2)N(C)CC3` [dextromethorphan] was tested, and the “Neg. Control ΔF/F0” value ([1]; dextromethorphan 0.254 μM, cells expressing only Gα16gustducin44) was 0.050, the “Neg. Control ΔF/F0” value ([1]; dextromethorphan 0.508 μM, cells expressing only Gα16gustducin44) was 0.044 and the “Neg. Control ΔF/F0” value ([1]; dextromethorphan 1.016 μM, cells expressing only Gα16gustducin44) was 0.053. The “Neg. Control ΔF/F0” value ([1]; dextromethorphan 2.031 μM, cells expressing only Gα16gustducin44) was 0.038, the “Neg. Control ΔF/F0” value ([1]; dextromethorphan 4.063 μM, cells expressing only Gα16gustducin44) was 0.041 and the “Neg. Control ΔF/F0” value ([1]; dextromethorphan 8.125 μM, cells expressing only Gα16gustducin44) was 0.044. For the same compound, the “Neg. Control ΔF/F0” value ([1]; dextromethorphan 16.250 μM, cells expressing only Gα16gustducin44) was 0.067, the “Neg. Control ΔF/F0” value ([1]; dextromethorphan 65.000 μM, cells expressing only Gα16gustducin44) was 0.312 and the “change in signal in the negative control (in words)” value ([1]; host cells expressing only Gα16-gustducin44) was “No significant change”. The “calcium signaling upon addition of agonist (in words)” value (human TAS2R46 [2]; cells stably expressing human TAS2R46) was “significant increase in calcium signaling”, the EC50 (human TAS2R46 [2]; stable cell line, nonlinear regression of ΔF/F0, read-out: calculated EC50 value for TAS2R46) was 31 µM and the “calcium signaling upon addition of agonist (in words)” value (human TAS2R46 [3]) was “significant concentration-dependent increase in calcium signaling”. For the same compound, the “activation of other human TAS2Rs (in words)” value [4] was “not to be activated”.
